The text below walks through data of patent publication US20060035829A1, “Chemokine combinations to mobilize progenitor/stem cells” (AnorMED Inc., priority 2004, published 2006).

The subject of assay [1] is CFU-GM progenitor cells in peripheral blood. Nature of the assay: Peripheral blood progenitor cell (PBSC) mobilization, CFU-GM assay of PBMC. The assay is classed as in vivo. The note with it: BALB/c mice, mean (X). As for the experimental part: Experimental procedures are as previously described (Pelus, L. M., et al., Blood (2001) 97:1534-1542; Blood (2004) 103:110-119). […] Mobilization experiments were performed in BALB/c mice (3 mice group). For mobilization with AMD3100 or GROβ alone, PBSC mobilization was quantified at the peak of mobilization determined for either agent in previous experiments. Thus, PBSC mobilization was quantified at 15 mins following an s.c. injection of 2.5 mg/kg GROβ and at 1 hour following an s.c. injection of 5 mg/kg AMD3100. In the combination experiment, PBSC mobilization was quantitated at 5, 15, 30, 60 and 150 minutes after a single subcutaneous injection of 2.5 mg/kg GROβ (R & D Systems) in saline and 5 mg/kg AMD3100. The compounds were injected separately and simultaneously at different s.c. sites. Injections were scheduled so that control and mobilized mice were evaluated at the same time in every experiment. Mice were killed by CO2 asphyxiation and blood was obtained by cardiac puncture using syringes coated with EDTA (ethylenediaminetetra acetic acid). PBMC's were obtained by separation of peripheral blood (0.4 mL) on Lympholyte-M (Cedarlane Labs, Hornby, ON, Canada). Complete blood counts (CBC's) were performed on a Hemavet Mascot (CDC Technologies, Oxford, Conn.). Manual differentials were performed on Wright-Giemsa-stained (Hema-Tek 1000, Bayer, Elkhart, Ind.) blood smears or spleen and bone marrow cell cytospin preparations (Shandon, Pittsburgh, Pa.). CFU-GM Assay PBMC's were assayed for CFU-GM in McCoy 5A media with 15% heat-inactivated fetal bovine serum (Hyclone Sterile Systems, Logan, Utah) and 0.3% agar (Difco Laboratories, Detroit, Mich.). PBMC's were cultured at 2×10^5/mL. CFU-GM were stimulated with 10 ng/mL recombinant murine GM-CSF (rmGM-CSF), 10 ng/mL rmIL-1α, and 50 ng/mL stem cell factor (SCF). Triplicate cultures from individual animals were incubated at 37° C., 5% CO2, 5% O2 in air for 7 days. Total CFU-GM/mL blood was determined by multiplying CFU frequencies by PBMC/ml blood corrected for white blood cell (WBC) recovery after Lympholyte-M separation.

The subject of a further assay is peripheral blood cells. Nature of the assay: Peripheral blood differential summary (complete blood counts, manual differentials). Type of assay: in vivo. The note with it: BALB/c mice. The protocol: Mobilization experiments were performed in BALB/c mice (3 mice group). For mobilization with AMD3100 or GROβ alone, PBSC mobilization was quantified at the peak of mobilization determined for either agent in previous experiments. Thus, PBSC mobilization was quantified at 15 mins following an s.c. injection of 2.5 mg/kg GROβ and at 1 hour following an s.c. injection of 5 mg/kg AMD3100.
In the combination experiment, PBSC mobilization was quantitated at 5, 15, 30, 60 and 150 minutes after a single subcutaneous injection of 2.5 mg/kg GROβ (R & D Systems) in saline and 5 mg/kg AMD3100. The compounds were injected separately and simultaneously at different s.c. sites. Injections were scheduled so that control and mobilized mice were evaluated at the same time in every experiment. Mice were killed by CO2 asphyxiation and blood was obtained by cardiac puncture using syringes coated with EDTA (ethylenediaminetetra acetic acid). PBMC's were obtained by separation of peripheral blood (0.4 mL) on Lympholyte-M (Cedarlane Labs, Hornby, ON, Canada). Complete blood counts (CBC's) were performed on a Hemavet Mascot (CDC Technologies, Oxford, Conn.). Manual differentials were performed on Wright-Giemsa-stained (Hema-Tek 1000, Bayer, Elkhart, Ind.) blood smears or spleen and bone marrow cell cytospin preparations (Shandon, Pittsburgh, Pa.).

Take `c1cc(CN2CCCNCCNCCCNCC2)ccc1CN1CCCNCCNCCCNCC1` [AMD3100, 1,1′-[1,4-phenylene-bis(methylene)]-bis-1,4,8,11-tetraazacyclotetradecane]: in assay [1] (60 min after s.c. injection (GROβ 2.5 mg/kg, AMD3100 5 mg/kg)), the CFU-GM/ml is given as 698.19 CFU-GM/ml. In assay [1] (60 min after s.c. injection), the “CFU-GM Mobilized Above Control” value came out at 576.15 and the “Fold Inc (CFU-GM/ml over PBS control)” value is 5.72. Further, in the assay on peripheral blood cells (60 min after s.c. injection), the “% LYMPH” value came out at 59.17%, the “% MONO” value came to 3.27%, the “% PMN” value is reported as 36.61% and the LYMPH is reported as 8.54. Further, in the assay on peripheral blood cells (60 min after s.c. injection), the MONO was found to be 0.47, the PMN stood at 5.35 and the WBC is reported as 14.49.

Regarding “GROβ: chemokine GROβ (R & D Systems) in saline; acts via the CXCR2 receptor”, in assay [1] (15 min after s.c. injection (GROβ 2.5 mg/kg, AMD3100 5 mg/kg)), the CFU-GM/ml came to 2505.54 CFU-GM/ml. Also, in assay [1] (15 min after s.c. injection), the “CFU-GM Mobilized Above Control” value is 2383.50 and the “Fold Inc (CFU-GM/ml over PBS control)” value amounted to 20.53. In the assay on peripheral blood cells (15 min after s.c. injection), the “% LYMPH” value is recorded as 65.19%, the “% MONO” value was found to be 5.65%, the “% PMN” value amounted to 27.35% and the LYMPH came out at 7.76. Further, in the assay on peripheral blood cells (15 min after s.c. injection), the MONO turned out to be 0.67, the PMN turned out to be 3.34 and the WBC came to 11.98.
